Measured values from ChEMBL document CHEMBL1201862, “PubChem BioAssay data set” (2004).
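All cell lines were grown in 96-well plates and treated with compound for 48 hours. At the GI50, growth is halved.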 Activity calls are given as the source filed them. No stated cut-off is given here; in the data, active = GI50 up to about 1.1 µM and inactive = higher.

Columns and labels:
Experiment in all cases: inhibition of tumour cell growth, NCI panel, 48 h
OVCAR-4 = system: OVCAR-4
NCI-H23 = system: NCI-H23
NCI-H460 = system: NCI-H460
UO-31 = system: UO-31
MDA-MB-435 = system: MDA-MB-435
NCI/ADR-RES = system: NCI/ADR-RES
BT-549 = system: BT-549
NCI-H522 = system: NCI-H522
SNB-19 = system: SNB-19
HCT-116 = system: HCT-116
SK-MEL-5 = system: SK-MEL-5
CAKI-1 = system: CAKI-1
HOP-62 = system: HOP-62
HCC 2998 = system: HCC 2998
TK-10 = system: TK-10
SW-620 = system: SW-620
M14 = system: M14
UACC-62 = system: UACC-62
KM12 = system: KM12
HL-60 = system: HL-60

Measured: GI50

COC(=O)c1ccccc1CC1Cc2cccc(C)c2C1=O (stereo not drawn)
inactive: OVCAR-4 27.7 µM | NCI-H23 57.5 µM | NCI-H460 47.5 µM | UO-31 22.7 µM | MDA-MB-435 23.3 µM | NCI/ADR-RES 32.7 µM | BT-549 30 µM | NCI-H522 24.8 µM | SNB-19 52.5 µM | HCT-116 23.8 µM | SK-MEL-5 21.4 µM | CAKI-1 80.2 µM | HOP-62 > 100 µM | HCC 2998 40.3 µM | TK-10 21.3 µM | SW-620 42.4 µM | M14 34.8 µM | UACC-62 30.5 µM | KM12 27 µM

O=C1Oc2cc(O)cc(/C=C/c3ccc(O)cc3)c2[C@@]12c1c(O)cc(O)cc1OC2c1cccc(O)c1 (stereo partly drawn)
inactive: OVCAR-4 56.2 µM | NCI-H23 24.7 µM | NCI-H460 20.9 µM | UO-31 29.7 µM | MDA-MB-435 21.4 µM | NCI/ADR-RES 67.1 µM | BT-549 49.8 µM | SNB-19 30.7 µM | HCT-116 29 µM | SK-MEL-5 12.5 µM | CAKI-1 83.8 µM | HL-60 28.9 µM | HOP-62 20.3 µM | HCC 2998 19.5 µM | TK-10 39.1 µM | M14 28.6 µM | UACC-62 25.3 µM | KM12 25.6 µM

NC(=O)C(c1ccccc1)N1OC2C(=O)N(c3cccc4ccccc34)C(=O)C2C1c1c2ccccc2c(Cl)c2ccccc12 (stereo not drawn)
inactive: OVCAR-4 9.93 µM | NCI-H23 9.2 µM | NCI-H460 9.31 µM | UO-31 12 µM | MDA-MB-435 6.92 µM | NCI/ADR-RES 5.15 µM | BT-549 9.42 µM | NCI-H522 10.1 µM | SNB-19 8.22 µM | HCT-116 1.23 µM | SK-MEL-5 5.06 µM | CAKI-1 5.28 µM | HL-60 2.44 µM | HOP-62 11 µM | TK-10 10.4 µM | SW-620 3.15 µM | M14 7.03 µM | UACC-62 6.93 µM | KM12 1.59 µM

CN1CCCN(C)CCCN(C)CCCN(C)CCC1
inactive: OVCAR-4 > 100 µM | NCI-H23 > 100 µM | UO-31 > 100 µM | MDA-MB-435 > 100 µM | NCI/ADR-RES > 100 µM | BT-549 > 100 µM | NCI-H522 > 100 µM | SNB-19 > 100 µM | HCT-116 > 100 µM | SK-MEL-5 > 100 µM | CAKI-1 > 100 µM | HOP-62 > 100 µM | HCC 2998 > 100 µM | TK-10 > 100 µM | SW-620 > 100 µM | M14 > 100 µM | UACC-62 > 100 µM | KM12 > 100 µM

CCc1nnc(CC)n1-n1c(Cc2ccccc2)n[nH]c1=O
inactive: OVCAR-4 > 100 µM | NCI-H23 > 100 µM | UO-31 > 100 µM | MDA-MB-435 > 100 µM | NCI/ADR-RES > 100 µM | BT-549 > 100 µM | NCI-H522 > 100 µM | SNB-19 > 100 µM | HCT-116 > 100 µM | SK-MEL-5 > 100 µM | HOP-62 > 100 µM | HCC 2998 > 100 µM | TK-10 > 100 µM | SW-620 > 100 µM | M14 > 100 µM | UACC-62 > 100 µM | KM12 > 100 µM

CNC(=O)c1nnn(Cc2ccccc2)c1S
inactive: OVCAR-4 > 100 µM | NCI-H23 > 100 µM | NCI-H460 > 100 µM | UO-31 > 100 µM | MDA-MB-435 > 100 µM | NCI/ADR-RES > 100 µM | BT-549 > 100 µM | SNB-19 > 100 µM | HCT-116 > 100 µM | SK-MEL-5 > 100 µM | CAKI-1 > 100 µM | HOP-62 > 100 µM | HCC 2998 > 100 µM | TK-10 > 100 µM | SW-620 > 100 µM | M14 > 100 µM | UACC-62 > 100 µM | KM12 > 100 µM

CCOC(=O)c1c(-c2ccc(OC)cc2)c(C#N)c(=S)n(C2OC(CO)C(O)C(O)C2O)c1-c1ccccc1 (stereo not drawn)
inactive: OVCAR-4 34.3 µM | NCI-H23 31.8 µM | NCI-H460 42.7 µM | UO-31 51.5 µM | MDA-MB-435 30.8 µM | NCI/ADR-RES > 100 µM | BT-549 37.4 µM | SNB-19 85.1 µM | HCT-116 27.2 µM | SK-MEL-5 13.3 µM | CAKI-1 50.7 µM | HL-60 40.8 µM | HOP-62 25.4 µM | HCC 2998 39.6 µM | TK-10 55.6 µM | SW-620 36.1 µM | M14 31.9 µM | UACC-62 28.2 µM | KM12 51.2 µM

C(=N\c1ccc(-c2nc3ccccc3[nH]2)cc1)/c1cccs1
inactive: OVCAR-4 > 100 µM | NCI-H23 > 100 µM | NCI-H460 > 100 µM | UO-31 31.2 µM | MDA-MB-435 > 100 µM | NCI/ADR-RES 43 µM | BT-549 27.4 µM | NCI-H522 62.8 µM | SNB-19 > 100 µM | HCT-116 > 100 µM | SK-MEL-5 54 µM | CAKI-1 > 100 µM | HL-60 22 µM | HOP-62 > 100 µM | TK-10 > 100 µM | SW-620 96.4 µM | M14 > 100 µM | KM12 58.1 µM

CCCCSC1=N/C(=C\c2ccc(N(C)C)cc2)C(=O)N1
inactive: OVCAR-4 21 µM | NCI-H23 67.9 µM | NCI-H460 20.8 µM | MDA-MB-435 28.6 µM | NCI/ADR-RES 82.6 µM | BT-549 > 100 µM | NCI-H522 21.7 µM | SNB-19 31.7 µM | HCT-116 25 µM | SK-MEL-5 50.5 µM | CAKI-1 35.6 µM | HL-60 82.8 µM | HOP-62 46.2 µM | TK-10 > 100 µM | SW-620 48.2 µM | M14 38.9 µM | UACC-62 20.7 µM | KM12 18 µM

NS(=O)(=O)c1ccc(/N=N/c2cc3ccccc3c(C(=O)O)c2O)cc1
inactive: OVCAR-4 > 46.5 µM | NCI-H23 > 47.8 µM | NCI-H460 10.5 µM | UO-31 > 49.8 µM | MDA-MB-435 > 55.8 µM | NCI/ADR-RES > 64.1 µM | BT-549 99.1 µM | NCI-H522 > 41 µM | SNB-19 > 64.9 µM | HCT-116 12.6 µM | SK-MEL-5 > 59.2 µM | CAKI-1 > 100 µM | HL-60 > 100 µM | HOP-62 > 59.2 µM | TK-10 > 47.4 µM | SW-620 > 41.8 µM | M14 97.1 µM | UACC-62 > 55.7 µM | KM12 5.18 µM

COc1cc2c(c(OC)c1)/C(=C/Sc1ccccc1)C(=O)N(C(C)(C)C)C2
inactive: OVCAR-4 33.1 µM | NCI-H23 26.3 µM | MDA-MB-435 22.2 µM | NCI/ADR-RES 11.7 µM | BT-549 26 µM | HCT-116 16.4 µM | SK-MEL-5 17.5 µM | CAKI-1 32.7 µM | HL-60 25 µM | HOP-62 27.5 µM | HCC 2998 37.8 µM | TK-10 54.6 µM | SW-620 38 µM | UACC-62 24.3 µM | KM12 24.3 µM
